This passage reports MIC results from ChEMBL document CHEMBL1149736, “A new acylated N-glycosyl lactam from Aristolochia contorta” (1992).

Molecules are shown by their SMILES. Values after ≈ are worked out from the molar mass of the structure shown.

For orientation: MIC means the least concentration at which growth counts as inhibited. The low end stands for a more susceptible organism, the high end for a less susceptible organism.

Experiment [1] deals with Bacillus subtilis. In words: Antibacterial activity against Bacillus subtilis. Type of experiment: functional.
Experiment [2] deals with Micrococcus luteus. In words: Antibacterial activity against Sarcina lutea. It counts as functional.

Consider `COc1cccc2c1cc1c3c(cc4c(c32)OCO4)C(=O)N1[C@@H]1O[C@H](COC(=O)/C=C/c2ccc(O)cc2)[C@@H](O)[C@H](O)[C@H]1O`, for which the MIC in experiment [1] came out at 43.8 µg/mL (≈ 72.8 µM); in experiment [2] it was 175 µg/mL (≈ 291 µM).

In experiment [2], `O=C(N[C@H](CO)[C@H](O)c1ccc([N+](=O)[O-])cc1)C(Cl)Cl` [CHLORAMPHENICOL] had an MIC of 5 µg/mL (≈ 15.5 µM).
